EP0062019A1, “New phenyl-perhydroazepines” (priority 1981, dated 1982)
pEC50: −log10 of the molar value.

Assays:
rabbit right atria = assay: Chronotropic effect (heart frequency) in isolated spontaneously beating right atria; assay type: cell-based; conditions: Oryctolagus cuniculus; for pEC50: iv, isolated right atria, rabbits pretreated with reserpine (5 mg/kg i.v.), Krebs-buffer pH 7.4, 32°C, read-out: HR EC50; for Emax: maximal effect compared with maximal effect of isoprenaline (intrinsic activity), rabbits pretreated with reserpine, read-out: HR ISA
Description: (§1) Pharmacological studies on cardiac effects on heart frequency and contractility in isolated right atria and papillary muscle from rabbit.
(§2) Rabbits with an average weight of 2.5 kg, pretreated with reserpine (5 mg/kg i.v.) about 16 hours before the experiment were used. The rabbits were killed by a blow and the hearts were rapidly removed. The right atria and a papillary muscle from the right ventricle were isolated and set up to contract isometrically in an organ bath. The bath contained 50 ml Krebs-buffer (pH 7.4) and the temperature was kept at 32°C.
(§3) The contractions were measured by means of a force displacement transducer (Grass Model FT03) coupled to a.Grass Model 7 Polygraph with a preampliphier (Grass Model 7PIF). ,
(§4) The spontaneously beating right atria was stretched to a resting tension high enough to measure the contractions and to trigger a tachograph for registration of the frequency. The papillary muscle was stretched to the length at which maximal tension was developed and was driven at a frequency of 1HZ by a current 20 per cent above threshold and with a duration of 5 msec.
(§5) After 60 min. equilibration, dose response curves to cumulative concentrations of isoprenaline were constructed for chronotropic effect, i.e. increase in frequency (atria) and positive inotropic effect, i.e. increase in contractility (papillary muscle). After wash-out similar curves were constructed for the compounds employed according to the invention. The positive inotropic agent dopamine was included for comparison.
(§6) In order to establish the maximal chronotropic and inotropic responses of the preparations, isoprenaline was added immediately after the maximal concentrations of the compounds. The maximal effects of the compounds compared with the maximal effect of isoprenaline are expressed as intrinsic activity (ISA).

[1] = test system: rabbit right ventricle papillary muscle; assay: Positive inotropic effect (contractility) in isolated, electrically driven papillary muscle; assay type: cell-based; conditions: for pEC50 / Emax: Oryctolagus cuniculus; for pEC50: iv, papillary muscle driven at 1HZ, rabbits pretreated with reserpine (5 mg/kg i.v.), Krebs-buffer pH 7.4, 32°C, read-out: Tmax EC50; for Emax: maximal effect compared with maximal effect of isoprenaline (intrinsic activity), rabbits pretreated with reserpine, read-out: Tmax ISA
Description: as §1, §2, §3, §4, §5, §6

SMILES: CC(C)NCC(O)c1ccc(O)c(O)c1 (stereo not shown) [Isoprenaline]
- pEC50 (rabbit right atria): 8.52
- Emax (rabbit right atria): 100%
- pEC50 [1]: 8.00
- Emax [1]: 100%

SMILES: CCCN1CCCCC(c2cccc(O)c2)C1 (stereo not shown) [Example 1, 3-(3-hydroxyphenyl)N-n-propylperhydroazepine]
- pEC50 (rabbit right atria): 6.46
- Emax (rabbit right atria): 31%
- pEC50 [1]: 4.96
- Emax [1]: 37%
- EC50 for contractility relative to the EC50 for dopamine ([1]; fraction of the dopamine EC50): about one third

SMILES: NCCc1ccc(O)c(O)c1 [Dopamine]
- pEC50 (rabbit right atria): 4.42
- Emax (rabbit right atria): 97%
- pEC50 [1]: 4.44
- Emax [1]: 77%
